In PMC12508156, “Non-canonical dihydrolipoyl transacetylase promotes chemotherapy resistance via mitochondrial tetrahydrofolate signaling” (Nature Communications, 2025):

Columns and labels:
[1] = system: protein synthesis; experiment: Global protein synthesis (O-propargyl-puromycin); format: cell-based, human
Procedure: (§1) Cellular metabolic states were examined through various assays. To gauge the levels of total intracellular or mitochondrial reactive oxygen species (ROS), cells were stained with CM-H2DCFDA or mitoSOX, respectively. Intracellular H2O2, NADPH, acetyl-CoA, and GSH/GSSG ratios were quantified using commercial assay kits as listed in the Reagents. Intracellular ATP levels were determined utilizing the ATP bioluminescent somatic cell assay and normalized to the total protein concentrations. The de novo synthesized RNA and proteins were assessed in cancer cells using commercial assays following the manufacturer’s protocols. In brief, O-propargyl-puromycin or uridine analog, 5-EU, was applied to stop translation or modify RNA. Polypeptides or modified RNA were measured using fluorescent azide with Ex/Em at 494/521 nm. PDC activity was determined by measuring the reduction of NAD+ to NADH during the conversion of pyruvate into acetyl-CoA.

[2] = system: GSH/GSSG; experiment: GSH/GSSG ratio (GSH/GSSG-Glo); format: cell-based, human
Procedure: as §1
Supplementary Fig. 2: GSH/GSSG ratio and NADPH level change upon DLAT knockdown and cisplatin treatment. A549cisR (a) and KB-3-1cisR (b) cells were transduced with control or […]
µg/ml; KB-3-1cisR: 5 µg/ml) for 24 h. The GSH/GSSG ratio and relative NADPH levels were measured using GSH/GSSG-Glo Assay and NADP/NADPH-Glo Assay, respectively. Error bars represent SD and are from 4 independent biological replicates for the upper panels of (a,b) and 3 for the lower panels of (a,b). P values were determined by one-way ANOVA.
(1 picture or pasted object on this page, not shown here)

[3] = system: cellular ROS; experiment: Cellular ROS level (CM-H2DCFDA staining); format: cell-based, human
Procedure: as §1

[4] = system: KB-3-1cisR xenograft tumors; experiment: IHC of KB-3-1cisR xenograft tumors (Ac-K44 MTHFD2, MT-CO2, DLAT, Ki-67); format: in vivo, athymic nu/nu mice; parameters: key: IHC intensity score 0 to 3+; conditions: KB-3-1cisR xenograft tumors (Figure 8J)
Excerpt: (§2) Formalin-fixed and paraffin-embedded tumor tissue specimens from HNSCC and NSCLC patients were obtained from the […] Cancer Tissue and Pathology Shared Resources. The Institutional Review Board (IRB) of Emory University approved using human specimens (IRB00003208 - HNSCC, IRB00098377 - NSCLC). Clinical samples were collected with informed consent according to the Health Insurance Portability and Accountability Act. Patients' clinical information was obtained through the […] Technology Applications Shared Resource. Tumors from HNSCC or NSCLC patients who received chemotherapy-containing regimens were used. Immunohistochemistry (IHC) staining of DLAT, acetyl-[…] MTHFD2, MT-CO2, and Ki-67 was performed based on the established protocol. Antigen retrieval was conducted in Tris-EDTA (pH 9.0) for acetyl-[…] MTHFD2 and MT-CO2 and sodium citrate (pH 6.0) for the remaining antigens. […] Assessment of positive DLAT, MT-CO2, and acetyl-[…] MTHFD2 staining intensity within tumor cells was performed using a scoring system ranging from 0 to 3+ based on IHC signal intensity. Mice were subcutaneously injected into the flank with 1 × 10^6 KB-3-1^cisR cells with or without DLAT knockdown. […] Tumors were collected at the experimental endpoint, and tumor proliferation was assessed using Ki-67 IHC staining. The localization, penetration, and efficacy of DMp39 were monitored by assessing the acetyl-[…] levels in tumors and fluorescence imaging analysis using an IVIS imaging system. Drug-induced organ toxicities, including splenomegaly, liver damage, and kidney injury, were monitored by assessing spleen index, alanine transaminase activity, and cystatin C levels in plasma.

[5] = system: lung cancer patient-derived xenograft tumors; experiment: IHC of lung cancer PDX tumors (Ac-K44 MTHFD2, MT-CO2, DLAT); format: in vivo, athymic nu/nu mice; parameters: key: IHC intensity score 0 to 3+; conditions: lung cancer PDX tumors (Figure 8M)
Excerpt: as §2

N.N.[Cl][Pt][Cl] [cisplatin]
Global protein synthase ([1]; A549cisR, pLKO.1, n=1 (Figure 3B)): 73.5
Global protein synthase ([1]; A549cisR, pLKO.1, n=2 (Figure 3B)): 70.6
Global protein synthase ([1]; A549cisR, pLKO.1, n=3 (Figure 3B)): 67.1
Global protein synthase ([1]; A549cisR, shDLAT, n=1 (Figure 3B)): 76.2
Global protein synthase ([1]; A549cisR, shDLAT, n=2 (Figure 3B)): 75.5
Global protein synthase ([1]; A549cisR, shDLAT, n=3 (Figure 3B)): 73.3
Global protein synthase ([1]; KB-3-1cisR, pLKO.1, n=1 (Figure 3B)): 101
Global protein synthase ([1]; KB-3-1cisR, pLKO.1, n=2 (Figure 3B)): 98.7
Global protein synthase ([1]; KB-3-1cisR, pLKO.1, n=3 (Figure 3B)): 101
Global protein synthase ([1]; KB-3-1cisR, shDLAT, n=1 (Figure 3B)): 92.8
Global protein synthase ([1]; KB-3-1cisR, shDLAT, n=2 (Figure 3B)): 100
Global protein synthase ([1]; KB-3-1cisR, shDLAT, n=3 (Figure 3B)): 92.4
GSH/GSSG ([2]; A549cisR cells, pLKO.1, n=2): 20.0066
GSH/GSSG ([2]; A549cisR cells, shDLAT, n=3): 8.945
GSH/GSSG ([2]; KB-3-1cisR cells, shDLAT, n=1): 6.046
GSH/GSSG ([2]; KB-3-1cisR cells, shDLAT, n=2): 6.2227
ROS level ([3]; A549cisR cells, pLKO.1, n=1): 0.9837
ROS level ([3]; A549cisR cells, pLKO.1, n=2): 1.0031
ROS level ([3]; A549cisR cells, pLKO.1, n=3): 1.0132
ROS level ([3]; A549cisR, CTL, sheet Figure 5G, replicate n=1): 1.052
ROS level ([3]; A549cisR, CTL, sheet Figure 5G, replicate n=2): 0.9938
ROS level ([3]; A549cisR, CTL, sheet Figure 5G, replicate n=3): 0.9539
ROS level ([3]; KB-3-1cisR cells, pLKO.1, n=1): 1.037
ROS level ([3]; KB-3-1cisR cells, pLKO.1, n=2): 0.9651
ROS level ([3]; KB-3-1cisR cells, pLKO.1, n=3): 0.9984
ROS level ([3]; KB-3-1cisR cells, shDLAT, n=1): 2.065
ROS level ([3]; KB-3-1cisR cells, shDLAT, n=2): 2.047
ROS level ([3]; KB-3-1cisR, CTL, sheet Figure 5G, replicate n=1): 0.9879
ROS level ([3]; KB-3-1cisR, CTL, sheet Figure 5G, replicate n=2): 1.001
ROS level ([3]; KB-3-1cisR, CTL, sheet Figure 5G, replicate n=3): 1.011
ROS level ([3]; KB-3-1cisR, shDLAT+Flag-MTHFD2 (K44Q), sheet Figure 5G, replicate n=1): 1.351
ROS level ([3]; KB-3-1cisR, shDLAT+Flag-MTHFD2 (K44Q), sheet Figure 5G, replicate n=2): 1.32
Ac-K44 (IHC score) ([4]; n=1): 2
DLAT (IHC score) ([4]; n=1): 2
MT-CO2 (IHC score) ([4]; n=1): 3
Ac-K44 (IHC score) ([4]; n=2): 3
DLAT (IHC score) ([4]; n=2): 3
MT-CO2 (IHC score) ([4]; n=2): 3
Ac-K44 (IHC score) ([4]; n=3): 2
DLAT (IHC score) ([4]; n=3): 2
MT-CO2 (IHC score) ([4]; n=3): 3
Ac-K44 (IHC score) ([4]; n=4): 2
DLAT (IHC score) ([4]; n=4): 3
MT-CO2 (IHC score) ([4]; n=4): 3
Ac-K44 (IHC score) ([4]; n=5): 2
DLAT (IHC score) ([4]; n=5): 3
MT-CO2 (IHC score) ([4]; n=5): 1
Ac-K44 (IHC score) ([4]; n=6): 2
DLAT (IHC score) ([4]; n=6): 2
MT-CO2 (IHC score) ([4]; n=6): 3
Ac-K44 (IHC score) ([5]; n=1): 2
DLAT (IHC score) ([5]; n=1): 1
MT-CO2 (IHC score) ([5]; n=1): 3
Ac-K44 (IHC score) ([5]; n=2): 2
DLAT (IHC score) ([5]; n=2): 2
MT-CO2 (IHC score) ([5]; n=2): 3
Ac-K44 (IHC score) ([5]; n=3): 3
DLAT (IHC score) ([5]; n=3): 3
MT-CO2 (IHC score) ([5]; n=3): 3
Ac-K44 (IHC score) ([5]; n=4): 3
DLAT (IHC score) ([5]; n=4): 2
MT-CO2 (IHC score) ([5]; n=4): 2
Ac-K44 (IHC score) ([5]; n=5): 2
DLAT (IHC score) ([5]; n=5): 2
MT-CO2 (IHC score) ([5]; n=5): 3
